Consider 38 molecules from the OPERA property sets (Mansouri et al. 2018).

Settings in one series: not given
Regarding `FC(F)=C(Cl)Cl`, the boiling point (usually the temperature at which the vapour pressure of the liquid equals the pressure above it) is 19 °C and the melting point (as a rule, the temperature of the solid-liquid transition) was -116 °C. For `CCCCCCCCCCCCOC(C)=O` the same measures were 265 °C and 1.3 °C.

`O=C1Cc2ccccc2N1` showed a melting point of 128 °C.

`COC(=O)C(C)Oc1ccc(Oc2ncc(C(F)(F)F)cc2Cl)cc1` (centres undefined) had a log10 Koc (L/kg) of 1.88, a log10 vapour pressure (mmHg) of -5.22 and a melting point of 56 °C. Consider `CCCCCCCCOc1ccccc1`, for which the boiling point was found to be 285 °C and the melting point turned out to be 8 °C.

`COc1cc(OC)nc(NC(=O)NS(=O)(=O)c2ncccc2C(=O)N(C)C)n1` displayed a log10 Koc (L/kg) of 1.48 and a melting point of 142 °C.

Take `Cc1ccc2nc3c(ccc4ccccc43)c(C)c2c1`: the melting point was found to be 159 °C. On the same count and under the same terms, the same measure for `COC(=O)c1ccc(C(=O)OC)o1`: 112 °C. The molecule `Clc1c(Br)c(Br)c2c(c1Br)Oc1c(Br)c(Br)c(Cl)c(Br)c1O2` displayed a log10 vapour pressure (mmHg) of -12.5 and a melting point of 385 °C. Molecule `O=C1C=C(N2CC2)C(=O)C(N2CC2)=C1N1CC1` registered a melting point of 163 °C.

In the case of `FC(Cl)=C(Cl)C(F)(F)F`, the boiling point was found to be 47.3 °C and the melting point is -137 °C. In the case of `CC=CC(=O)CC`, the boiling point is 138 °C. `Cc1ccnc2ccccc12` showed a boiling point of 262 °C, a log10 vapour pressure (mmHg) of -2.2 and a melting point of 9.5 °C. `CC(Cc1ccc(C(C)(C)C)cc1)CN1C[C@@H](C)O[C@@H](C)C1` (single isomer, unassigned) registered a log10 vapour pressure (mmHg) of -4.59. The molecule `CC=CCc1ccccc1` gave a boiling point of 176 °C. As for `O=C(O)C(O)C(Cl)(Cl)Cl` (centres undefined), the melting point stood at 125 °C. Regarding `CC(C)C1CCCC1`, the boiling point was found to be 126 °C, the log10 vapour pressure (mmHg) worked out at 1.21 and the melting point was -111 °C.

On to `O=C(Cl)CCCCCCCCC(=O)Cl`, for which the melting point was -2.5 °C.

With `Cc1csc(N)n1`, the melting point is 45.5 °C. Take `C=C1/C(=C\C=C2/CCC[C@]3(C)[C@@H]([C@H](C)CCCC(C)(C)O)CC[C@@H]23)C[C@@H](O)C[C@@H]1O`: the melting point was 115 °C. The same measure, in the same setting: with `O=C1OC(=Cc2ccccc2)c2ccccc21` the figure was 100 °C. `ClCc1ccc(Cl)cc1` registered a boiling point of 223 °C and a melting point of 31 °C. `C/C=C/C(=O)c1ccccc1`: the melting point worked out at 20.5 °C.

On to `CC(C)CC(O)CC(C)C`, for which the boiling point amounted to 174 °C and the log10 vapour pressure (mmHg) was -0.519. Molecule `CC1CCC(=O)CC1` displayed a boiling point of 170 °C, a log10 vapour pressure (mmHg) of 0.176 and a melting point of -40.6 °C. As for `CCOC(=O)Cc1ccccc1`, the boiling point is 227 °C, the log10 Koc (L/kg) was found to be 1.89 and the melting point was -29.4 °C. `CCCCCCCCCc1cccc2ccccc12` displayed a boiling point of 366 °C and a melting point of 8 °C. As to `CC(=O)C(C)C`, the boiling point amounted to 94.3 °C, the log10 Koa came to 3.04, the log10 vapour pressure (mmHg) was determined as 1.72 and the melting point is -92 °C. In addition, the ready biodegradability entry was “readily biodegradable”.

In turn, `C=COCC(C)C` yielded a boiling point of 83 °C, a log10 vapour pressure (mmHg) of 1.77 and a melting point of -112 °C. `OCc1ccc(O)cc1`: the boiling point worked out at 252 °C and the melting point was found to be 124 °C. The molecule `ClCC#CCCl` yielded a boiling point of 166 °C.

As to `CNC(C)CC1CCCCC1` (centres undefined), the boiling point amounted to 205 °C.

For `Cc1ccccc1NC=O`, the boiling point turned out to be 288 °C and the melting point came to 62 °C. The like results for `C=C(CC(=O)OC)C(=O)OC` were, in that order, 208 °C and 38 °C. The molecule `C=C1[C@H]2CC[C@@H]3[C@H]2C(C)(C)CCC[C@]13C` displayed a boiling point of 258 °C. Molecule `CC1CCCCC1NC(=O)Nc1ccccc1` (centres undefined) had a log10 Koc (L/kg) of 2.31, a log10 vapour pressure (mmHg) of -8.4 and a melting point of 136 °C. Consider `Nc1ccc2ccccc2c1`, for which the boiling point was 300 °C, the log10 Henry constant (atm·m³/mol) was -7.09, the log10 vapour pressure (mmHg) was -3.59 and the melting point worked out at 113 °C. The ready biodegradability result is “readily biodegradable”. For the molecule `CN1C(=O)CN=C(c2ccccc2F)c2cc(Cl)ccc21`, the melting point is 296 °C.

The same series, now with this note: fish.
Molecule `COC(=O)C(C)Oc1ccc(Oc2ncc(C(F)(F)F)cc2Cl)cc1` (centres undefined) displayed a log10 BCF of 1.23 and a log10 biotransformation half-life (days) of -1.08.
